Assay results as given in patent publication US20140220556A1, “Method of Design and Synthesis of a New Drug” (priority 2013, published 2014).

Columns and labels:
[1] = FDA statistics, third stage of clinical tests; cited from earlier work
benzidine skin sarcoma = assay: Anticancer activity on benzidine skin sarcoma; format: in vivo, Barbados mice
Description: Before applying it to the silica gel, 7 mL of a solution of 2% benzidine and 0.9% sodium chloride were added until an opalescent suspension was formed (1 g silica gel for 5 mL NaCl solution). Twenty-five Barbados mice of both sexes with weight of 18-20 g that were kept on a vivarium diet were administered benzidine and phorbol acetate immobilized on silica gel subcutaneously near the neck. After two weeks, 18 animals had developed tumors of different sizes in the form of a small bump on the neck near the silica gel granulomas. Each group of animals was administered the corresponding compound parenterally, at a dose of 100 μg/kg weight, twice a day for two weeks, starting 16 days after administration of the carcinogen.

[2] = test system: Ehrlich's ascites adenocarcinoma; assay: Antitumor activity in Ehrlich's ascites adenocarcinoma; format: in vivo, Barbados mice; conditions: experimental animals, n = 10
Description: The antitumor activity of the compositions were studied in models of Ehrlich's ascites carcinoma in young Barbados mice of both sexes with weights between 15-17 g (68 individuals), which were kept on a vivarium diet.
45 mice were inoculated from a mouse with adenocarcinoma using an insulin syringe with 0.1 mL ascitic fluid in the region of the liver.
Ten mice were administered Antican (see Table 8).

HeLa cells = assay: Effect of Antican on HeLa cells; format: cell-based
Text: In establishing the minimum concentration of Antican that could slow the growth of cells, a comparison was made between the number of surviving cells and the concentration of Antican in the solution.

Row | Compound | average effectiveness [1] | Weight of Animal, After Treatment (benzidine skin sarcoma; 100 μg/kg parenterally twice a day for two weeks, n = 7) | mice died (benzidine skin sarcoma; after treatment, n = 7) | Weight of Animal, Before Treatment (benzidine skin sarcoma; before treatment, n = 7) | Animal Survival (benzidine skin sarcoma; benzidine skin sarcoma, n = 10) | Time of Death of Animals after the First Injection, Average Value ([2]; Liposomes +) | Time of Death of Animals after the First Injection, Average Value ([2]; Liposomes −) | Number of Live Cells after Incubation, % (HeLa cells; dose 2 μg/mL) | Number of Live Cells after Incubation, ±1000 (HeLa cells; dose 2 μg/mL) | Number of Live Cells after Incubation, % (HeLa cells; dose 4 μg/mL) | Number of Live Cells after Incubation, ±1000 (HeLa cells; dose 4 μg/mL) | Number of Live Cells after Incubation, % (HeLa cells; dose 6 μg/mL) | Number of Live Cells after Incubation, ±1000 (HeLa cells; dose 6 μg/mL) | Number of Live Cells after Incubation, % (HeLa cells; dose 8 μg/mL) | Number of Live Cells after Incubation, ±1000 (HeLa cells; dose 8 μg/mL) | Number of Live Cells after Incubation, % (HeLa cells; dose 10 μg/mL) | Number of Live Cells after Incubation, ±1000 (HeLa cells; dose 10 μg/mL) | Number of Live Cells after Incubation, % (HeLa cells; dose 12 μg/mL) | Number of Live Cells after Incubation, ±1000 (HeLa cells; dose 12 μg/mL)
1 | CN1CC[C@]23c4c5ccc(O)c4O[C@H]2[C@@H](O)C=C[C@H]3[C@H]1C5 [morphine] | 75% |  |  |  |  |  |  |  |  |  |  |  |  |  |  |  |  |  | 
2 | CC(=O)O[C@@]12CO[C@@H]1C[C@H](O)[C@@]1(C)C(=O)[C@H](O)C3=C(C)[C@@H](OC(=O)[C@H](O)[C@@H](NC(=O)OC(C)(C)C)c4ccccc4)C[C@@](O)([C@@H](OC(=O)c4ccccc4)[C@H]21)C3(C)C [Taxotere] |  | 23 ± 1.1 g | 2 | 28 ± 1.2 g | 28 ± 1.1 days | 15 ± 0.5 days | 14 ± 0.12 days | 100% | 150000 Millions | 98% | 150000 Millions | 97% | 145000 Millions | 89% | 135000 Millions | 82% | 130000 Millions | 94% | 153000 Millions
